Drawing on patent EP1972623A1, “Arylpyridazines as fungicides” (Bayer CropScience AG, priority 2007, dated 2008), this text covers Wirkungsgrad and chromatographic logP for 25 molecules.

The subject of one series is Botrytis cinerea. Briefly: Botrytis test (bean) / protective. The conditions noted are these: 250 ppm Wirkstoff; bean plants sprayed protectively; lesion size 2 days after inoculation. In kind it is in vivo. From the text:
Botrytis - Test (Bohne) / protektiv
(§1) Zur Herstellung einer zweckmäßigen Wirkstoffzubereitung vermischt man 1 Gewichtsteil Wirkstoff mit den angegebenen Mengen Lösungsmittel und Emulgator und verdünnt das Konzentrat mit Wasser auf die gewünschte Konzentration.
Zur Prüfung auf protektive Wirksamkeit werden junge Pflanzen mit der Wirkstoff-zubereitung in der angegebenen Aufwandmenge besprüht. Nach Antrocknen des Spritzbelages werden auf jedes Blatt 2 kleine mit Botrytis cinerea bewachsene Agarstückchen aufgelegt. Die inokulierten Pflanzen werden in einer abgedunkelten Kammer bei ca. 20°C und 100% relativer Luftfeuchtigkeit aufgestellt.
2 Tage nach der Inokulation wird die Größe der Befallsflecken auf den Blättern ausgewertet. Dabei bedeutet 0% ein Wirkungsgrad, der demjenigen der Kontrolle entspricht, während ein Wirkungsgrad von 100% bedeutet, daß kein Befall beobachtet wird.

Series [1] is described as follows: logP determination via HPLC retention times (calibration with unbranched alkan-2-ones). The format is physicochemical. The note with it: HPLC on reversed-phase C 18 columns, EEC Directive 79/831 Annex V.A8; acidic aqueous mobile phase / acetonitrile, linear gradient 10% to 95% acetonitrile. An excerpt:
Die Kalibrierung wurde jeweils mit unverzweigten Alkan-2-onn (3 bis 16 Kohlenstoff Atome) mit bekannten IogP Werten durchgeführt (Bestimmung von den logP Werten über die Retentionszeiten durch lineare Interpolation zwischen zwei bestimmten Alkazionen). Die Lambda-max Werte wurden jeweils in den Maxima der Chromatographie-Signale durch UV Spektren zwischen 190nm und 400nm bestimmt.

Another series deals with Venturia inaequalis. Briefly: Venturia test (apple) / protective. In kind it is in vivo. The note with it: 100 ppm Wirkstoff; apple plants sprayed protectively; evaluation 10 days after inoculation.
From the text: Venturia - Test (Apfel) / protektiv
as §1
Zur Prüfung auf protektive Wirksamkeit werden junge Pflanzen mit der Wirkstoffzubereitung in der angegebenen Aufwandmenge besprüht. Nach Antrocknen des Spritzbelages werden die Pflanzen mit einer wäßrigen Konidiensuspension des Apfelschorferregers Venturia inaequalis inokuliert und verbleiben dann 1 Tag bei ca. 20°C und 100% relativer Luftfeuchtigkeit in einer Inkubations-kabine.
Die Pflanzen werden dann im Gewächshaus bei ca, 21°C und einer relativen Luftfeuchtigkeit von ca. 90% aufgestellt.
(§2) 10 Tage nach der Inokulation erfolgt die Auswertung. Dabei bedeutet 0% ein Wirkungsgrad, der demjenigen der Kontrolle entspricht, während ein Wirkungsgrad von 100% bedeutet, daß kein Befall beobachtet wird.

The subject of series [2] is Erysiphe graminis f.sp, hordei. The experiment in a line: Erysiphe test (barley) / protective. The format is in vivo. The note with it: 1000 ppm Wirkstoff; barley plants sprayed protectively; evaluation 7 days after inoculation.
From the text: Erysiphe-Test (Gerste) / protektiv
as §1
Zur Prüfung auf protektive Wirksamkeit besprüht man junge Pflanzen mit der Wirkstoffzubereitung in der angegebenen Aufwandmenge.
Nach Antrocknen des Spritzbelages werden die Pflanzen mit Sporen von Erysiphe graminis f.sp, hordei bestäubt.
Die Pflanzen werden in einem Gewächshaus bei einer Temperatur von ca. 20°C und einer relativen Luftfeuchtigkeit von ca. 80 % aufgestellt, um die Entwicklung von Mehltaupusteln zu begünstigen.
7 Tage nach der Inokulation erfolgt die Auswertung, Dabei bedeutet 0 % ein Wirkungsgrad, der demjenigen der Kontrolle entspricht, während ein Wirkungsgrad von 100 % bedeutet, daß kein Befall beobachtet wird.

A further series has as its system Leptosphaeria nodorum. Briefly: Leptosphaeria nodorum test (wheat) / protective. The format is in vivo. The note with it: 1000 ppm Wirkstoff; wheat plants sprayed protectively; evaluation 10 days after inoculation.
From the text: Leptosphaeria nodorum-Test (Weizen) / protektiv
(§3) Zur Herstellung einer zweckmäßigen Wirkstoffzubereitung vermischt man 1 Gewichtsteil Wirkstoff mit den angegebenen Mengen Lösungsmittel und Emulgator und verdünnt das Konzentrat mit Wasser auf die gewünschte Konzentration,
Zur Prüfung auf protektive Wirksamkeit werden junge Pflanzen mit der Wirkstoffzubereitung in der angegebenen Aufwandmenge besprüht Nach Antrocknen des Spritzbelages werden die Pflanzen mit einer Sporensuspension von Leptosphaeria nodorum besprüht, Die Pflanzen verbleiben 48 Stunden bei 20°C und 100 % relativer Luftfeuchtigkeit in einer Inkubationskabine.
Die Pflanzen werden in einem Gewächshaus bei einer Temperatur von ca. 20°C und einer relativen Luftfeuchtigkeit von 80 % aufgestellt.
as §2

The subject of series [3] is Fusarium nivale (var. majus). Briefly: Fusarium nivale (var. majus) test (wheat) / protective. The format is in vivo. The conditions noted are these: 1000 ppm Wirkstoff; wheat plants sprayed protectively; evaluation 6 days after inoculation.
From the text: Fusarium nivale (var. majus)-Test (Weizen) / protektiv
as §3
Zur Prüfung auf protektive Wirksamkeit werden junge Pflanzen mit der Wirkstoffzubereitung in der angegebenen Aufwandmenge besprüht. Nach Antrocknen des Spritzbelages werden die Pflanzen mit einer Konidiensuspension von Fusarium nivale (var. majus) besprüht.
Die Pflanzen werden in einem Gewächshaus unter lichtdurchlässigen Inkubationshauben bei einer Temperatur von ca.15°C und einer relativen Luftfeuchtigkeit von ca. 100 % aufgestellt.
6 Tage nach der Inokulation erfolgt die Auswertung. Dabei bedeutet 0% ein Wirkungsgrad, der demjenigen der Kontrolle entspricht, während ein Wirkungsgrad von 100% bedeutet, daß kein Befall beobachtet wird.

Another series has as its system Pyrenophora teres. Briefly: Pyrenophora teres test (barley) / protective. In kind it is in vivo. The note with it: 1000 ppm Wirkstoff; barley plants sprayed protectively; evaluation 8 days after inoculation.
From the text: Pyrenophora teres-Test (Gerste) / protektiv
as §1
Zur Prüfung auf protektive Wirksamkeit werden junge Pflanzen mit der Wirkstoffzubereitung in der angegeben Aufwandmenge besprüht, Nach Antrocknen des Spritzbelages werden die Pflanzen mit einer Konidiensuspension von Pyrenophora teres besprüht. Die Pflanzen verbleiben 48 Stunden bei 20°C und 100 % relativer Luftfeuchtigkeit in einer Inkubationskabine.
Die Pflanzen werden dann in einem Gewächshaus bei einer Temperatur von ca. 20°C und relativen Luftfeuchtigkeit von ca. 80 % aufgestellt.
8 Tage nach der Inokulation erfolgt die Auswertung. Dabei bedeutet 0 % ein Wirkungsgrad, der demjenigen der Kontrolle entspricht, während ein Wirkungsgrad von 100 % bedeutet, daß kein Befall beobachtet wird, […]

Molecules are shown by their SMILES.

Broadly, the chromatographic logP is lipophilicity estimated from chromatographic retention. For the molecule `Cc1nnc(Cl)c(-c2ccc(F)cc2Cl)c1-c1cccs1` [Beispiel 37], the Wirkungsgrad with Botrytis cinerea and with Venturia inaequalis was ≥ 70% in each case. In series [1], this molecule gave a chromatographic logP of 3.45. In the case of `Cc1nnc(Cl)c(-c2c(F)cccc2Cl)c1-c1ccc(Cl)s1` [Beispiel 94], the Wirkungsgrad in the series on Botrytis cinerea and in the series with Venturia inaequalis was ≥ 70% each time. The chromatographic logP in series [1] was 4.16. Take `Cc1nnc(Cl)c(-c2c(F)cccc2F)c1-c1cccs1` [Beispiel 100]: the Wirkungsgrad (in the series on Botrytis cinerea; in series [2]; in the series on Venturia inaequalis; with Leptosphaeria nodorum; in series [3]; in the series on Pyrenophora teres) was ≥ 70% throughout. The same molecule had a chromatographic logP in series [1] of 3.12. In series [1], `Cc1ccc(-c2c(C)nnc(Cl)c2-c2c(F)cccc2F)nc1C` [Beispiel 101] had a chromatographic logP of 2.88. In addition, the Wirkungsgrad in the series with Venturia inaequalis was ≥ 70%. Turning to `Cc1nnc(Cl)c(-c2c(F)cccc2F)c1-c1ccc(Cl)s1` [Beispiel 103], the Wirkungsgrad in the series with Botrytis cinerea and with Venturia inaequalis was ≥ 70% each time. Further, the chromatographic logP in series [1] came to 3.84.

For the molecule `Cc1nnc(Cl)c(-c2ccc(F)cc2Br)c1-c1cccs1` [compound 11], the chromatographic logP in series [1] worked out at 3.56. Molecule `Cc1nnc(Cl)c(-c2ccc(F)cc2Cl)c1-c1ccc(Cl)s1` [compound 38] came in with a chromatographic logP in series [1] of 4.21. The molecule `Cc1nnc(Cl)c(-c2c(Cl)cccc2Cl)c1-c1ccc(Cl)s1` [compound 46] returned a chromatographic logP in series [1] of 4.44. `Cc1ccc(-c2c(C)nnc(Cl)c2-c2c(Cl)cccc2Cl)nc1C` [compound 47] showed a chromatographic logP in series [1] of 4.16. Turning to `Cc1nnc(Cl)c(-c2c(F)cccc2Cl)c1-c1cccs1` [compound 55], the chromatographic logP in series [1] turned out to be 3.33. In the case of `Cc1nnc(Cl)c(-c2ccccc2Cl)c1-c1cccs1` [compound 59], the chromatographic logP in series [1] was 3.29.

In turn, `Cc1nnc(Cl)c(-c2c(F)cc(F)cc2F)c1-c1ccc(Cl)s1` [compound 67] gave a chromatographic logP in series [1] of 4.11.

Consider `Cc1nnc(Cl)c(-c2cc(F)c(F)cc2F)c1-c1cccs1` [compound 85], for which the chromatographic logP in series [1] was found to be 3.39. In series [1], `Cc1nnc(Cl)c(-c2cc(F)c(F)cc2F)c1-c1ccc(Cl)s1` [compound 86] had a chromatographic logP of 4.01. `Cc1ccc(-c2c(C)nnc(Cl)c2-c2cc(F)c(F)cc2F)nc1C` [compound 87]: in series [1], the chromatographic logP worked out at 3.15.

On to `Cc1nnc(Cl)c(-c2c(F)cccc2F)c1-c1ccncc1` [compound 102], for which the chromatographic logP in series [1] was 2.08.

Molecule `Cc1ccc(-c2c(C)nnc(Cl)c2-c2c(F)cccc2F)o1` [compound 104] displayed a chromatographic logP in series [1] of 3.26. In series [1], `Cc1nnc(Cl)c(-c2c(F)cccc2F)c1-c1nccs1` [compound 105] registered a chromatographic logP of 2.51.

In series [1], `Cc1nnc(Cl)c(-c2ccccc2F)c1-c1ccc(Cl)s1` [compound 118] gave a chromatographic logP of 3.7.

`Cc1nnc(Cl)c(-c2cc(F)ccc2F)c1-c1ccc(Cl)s1` [compound 119] registered a chromatographic logP in series [1] of 3.42. Same read-out and setting: in the case of `Cc1nnc(Cl)c(-c2cc(Cl)ccc2F)c1-c1ccc(Cl)s1` [compound 120] it was 4.16; in that of `Cc1nnc(Cl)c(-c2ccccc2F)c1-c1cccs1` [compound 121], 3.05; in that of `Cc1nnc(Cl)c(-c2cccc(Cl)c2)c1-c1cccs1` [compound 172], 3.34. In turn, `Cc1nnc(Cl)c(-c2cccc(Cl)c2)c1-c1ccc(Cl)s1` [compound 173] registered a chromatographic logP in series [1] of 4.07. In the case of `COc1ccccc1-c1c(Cl)nnc(C)c1-c1ccc(Cl)s1` [compound 182], the chromatographic logP in series [1] amounted to 3.65.
